This note sets out measurements from patent US10669268B2, “Bicyclic derivatives” (Hoffmann-La Roche Inc., priority 2012, dated 2020).

Each structure is given as a SMILES string.

The target of this experiment is ATX (human His-tagged) (Homo sapiens (Human), UniProt Q13822). Description: Human ATX enzyme inhibition assay (fluorescence quenching, MR121 substrate). In kind it is biochemical. The conditions noted are these: 30 nM ATX, 1 μM MR121 substrate, 30° C., pH 8.0. Put shortly:
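Tris-HCl buffer at pH 8.0 contained 140 mM NaCl, 5 mM KCl, 1 mM each CaCl2 and MgCl2, and 0.01% Triton X-100. The MR121 substrate (1 μM final) was incubated with enzyme for 15 min at 30 °C, and activity was read by fluorescence quenching.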

`O=C(OCc1ccc(OCC(F)(F)F)cc1)N1C[C@@H]2CN(C(=O)c3ccc4[nH]nnc4c3)C[C@H]2C1` [Example 4.44, (3aS,6aS)-5-(1H-benzotriazole-5-carbonyl)-hexahydro-pyrrolo[3,4-c]pyrrole-2-carboxylic acid 4-(2,2,2-trifluoro-ethoxy)-benzyl ester]: the half-inhibitory concentration (IC50) (as a rule, the point on the concentration scale where inhibition reaches its midpoint) amounted to 6 nM.
`O=C(OCc1ccc(OC(F)(F)F)cc1)N1C[C@@H]2CN(C(=O)c3cc4nn[nH]c4cc3F)C[C@H]2C1` [Example 1.54, (3aS,6aS)-5-(6-fluoro-1H-benzotriazole-5-carbonyl)-hexahydro-pyrrolo[3,4-c]pyrrole-2-carboxylic acid 4-trifluoromethoxy-benzyl ester] registered an IC50 of 22 nM. Against the preceding compound, the IC50 is about 3.7-fold higher.
As to `O=C(c1ccc2[nH]nnc2c1)N1C[C@H]2CN(C(=O)c3cc(OCC(F)(F)F)c4ccccc4n3)C[C@@H]2C1` [Example 19.38, ((3aS,6aS)-5-(1H-benzo[d][1,2,3]triazole-5-carbonyl)hexahydropyrrolo[3,4-c]pyrrol-2(1H)-yl)(4-(2,2,2-trifluoroethoxy)quinolin-2-yl)methanone], 5 nM corresponded to half-maximal inhibition (IC50).
On to `O=C(/C=C/c1ccc(-c2ccccc2)cn1)N1C[C@@H]2CN(C(=O)c3ccc4[nH]nnc4c3)C[C@H]2C1` [Example 15.84, (E)-1-[(3aR,6aR)-5-(1H-benzotriazole-5-carbonyl)-hexahydro-pyrrolo[3,4-c]pyrrol-2-yl]-3-(5-phenyl-pyridin-2-yl)-prop-2-en-1-one], for which the IC50 came out at 12 nM.
With `CS(=O)(=O)c1cc(Cl)cc(COC(=O)N2CC[C@@H]3CN(C(=O)c4ccc5[nH]nnc5c4)C[C@@H]3CC2)c1` [Example 4.06, (3aS,8aR)-2-(1H-benzotriazole-5-carbonyl)-octahydro-pyrrolo[3,4-d]azepine-6-carboxylic acid 3-chloro-5-methanesulfonyl-benzyl ester], the half-inhibitory concentration (IC50) amounted to 12 nM.
The compound `O=C(CCc1ccc(OC(F)(F)F)cc1)N1CC[C@@H]2CN(Cc3ccc4[nH]nnc4c3)C[C@H]2C1` (relative stereo) [Example 17.16, 1-[trans-2-(1H-benzotriazol-5-ylmethyl)-octahydro-pyrrolo[3,4-c]pyridin-5-yl]-3-(4-trifluoromethoxy-phenyl)-propan-1-one] displayed a half-inhibitory concentration (IC50) of 309 nM.
`O=C(COc1cccc(OC(F)(F)F)c1)N1C[C@@H]2CN(C(=O)c3ccc4[nH]nnc4c3)C[C@@H]2C1` [Example 15.71]: the half-inhibitory concentration (IC50) came to 1360 nM.
Take `O=C(COc1ccc(OC(F)(F)F)cc1)N1C[C@@H]2CN(C(=O)c3ccc4[nH]nnc4c3)C[C@H]2C1` [Example 15.63]: the concentration for half-maximal inhibition (IC50) amounted to 12 nM.
The compound `CC(C)c1cc2c(cc1OCC(=O)N1CC[C@@H]3CN(C(=O)c4ccc5[nH]nnc5c4)C[C@@H]3CC1)C(C)(C)CC2` [Example 1.39, 1-((3aR,8aS)-2-(1H-benzo[d][1,2,3]triazole-5-carbonyl)octahydropyrrolo[3,4-d]azepin-6(7H)-yl)-2-(6-isopropyl-3,3-dimethyl-2,3-dihydro-1H-inden-5-yloxy)ethanone] displayed a half-maximal inhibitory concentration (IC50) of 7 nM.
`O=C(OCc1ccc(OC(F)(F)F)cc1)N1C[C@@H]2CN(C(=O)[C@@H]3CCc4[nH]nnc4C3)C[C@H]2C1` [Example 4.58, (3aS,6aS)-5-((R)-4,5,6,7-tetrahydro-1H-benzotriazole-5-carbonyl)-hexahydro-pyrrolo[3,4-c]pyrrole-2-carboxylic acid 4-trifluoromethoxy-benzyl ester] displayed an IC50 of 5.2 nM. The IC50 values of the last two compounds are within 1.5-fold of each other.
Compound `CC(C)(C)c1ccccc1OCC(=O)N1C[C@@H]2CN(C(=O)c3ccc4[nH]nnc4c3)C[C@H]2C1` [Example 19.16, 1-[(3aS,6aS)-5-(1H-benzotriazole-5-carbonyl)-hexahydro-pyrrolo[3,4-c]pyrrol-2-yl]-2-(2-tert-butyl-phenoxy)-ethanone] came in with an IC50 of 31 nM. This IC50 is about 6-fold higher than that of the compound before.
Compound `COc1ccc(OCC(=O)N2CC[C@@H]3CN(C(=O)c4ccc5[nH]nnc5c4)C[C@@H]3CC2)c(C(C)(C)C)c1` [Example 1.42, 1-[(3aS,8aR)-2-(1H-benzotriazole-5-carbonyl)-1,3,3a,4,5,7,8,8a-octahydropyrrolo[3,4-d]azepin-6-yl]-2-(2-tert-butyl-4-methoxyphenoxy)ethanone] showed a half-inhibitory concentration (IC50) of 7 nM.
For `O=C(/C=C/c1cccc(OC(F)(F)F)c1)N1CC[C@@H]2CN(C(=O)c3ccc4[nH]nnc4c3)C[C@@H]2CC1` [Example 15.72] the value was 15 nM; for `CC(C)c1ccccc1/C=C/C(=O)N1CC[C@@H]2CN(C(=O)c3ccc4[nH]nnc4c3)C[C@@H]2CC1` [Example 1.22, (E)-1-[(3aS,8aR)-2-(1H-benzotriazole-5-carbonyl)-octahydro-pyrrolo[3,4-d]azepin-6-yl]-3-(2-isopropyl-phenyl)-prop-2-en-1-one], 9 nM.
Take `O=C(CCc1ccc(OC(F)F)cc1)N1C[C@@H]2CN(C(=O)c3ccc4[nH]nnc4c3)C[C@H]2C1` [Example 17.03, 1-[(3aR,6aR)-5-(1H-benzotriazole-5-carbonyl)-hexahydro-pyrrolo[3,4-c]pyrrol-2-yl]-3-(4-difluoromethoxy-phenyl)-propan-1-one]: the IC50 stood at 16 nM.
`O=C(/C=C/c1cc(Cl)cc(Cl)c1)N1CC[C@@H]2CN(C(=O)c3ccc4[nH]nnc4c3)C[C@H]2C1` (relative stereo) [Example 13, (E)-1-[trans-2-(1H-Benzotriazole-5-carbonyl)-octahydro-pyrrolo[3,4-c]pyridin-5-yl]-3-(3,5-dichloro-phenyl)-prop-2-en-1-one] came in with an IC50 of 57 nM.
Compound `O=C(OCc1ccc(OC(F)(F)F)cc1F)N1C[C@@H]2CN(C(=O)c3ccc4[nH]nnc4c3)C[C@H]2C1` [Example 4.49, (3aS,6aS)-5-(1H-benzotriazole-5-carbonyl)-hexahydro-pyrrolo[3,4-c]pyrrole-2-carboxylic acid 2-fluoro-4-trifluoromethoxy-benzyl ester] returned a half-inhibitory concentration (IC50) of 3 nM. Against the preceding compound, the IC50 is about 19-fold lower.
As for `CC(C)(C)c1cc(Br)ccc1OCC(=O)N1C[C@@H]2CN(C(=O)[C@@H]3CCc4[nH]nnc4C3)C[C@H]2C1` [Example 19.29, 1-[(3aS,6aS)-5-[(5R)-4,5,6,7-tetrahydro-1H-benzotriazole-5-carbonyl]-1,3,3a,4,6,6a-hexahydropyrrolo[3,4-c]pyrrol-2-yl]-2-(4-bromo-2-tert-butylphenoxy)ethanone], the figure is 1 nM; as for `O=C(/C=C/c1ccc(OC(F)(F)F)cc1)N1CC[C@@H]2CN(C(=O)N3CCc4[nH]c(=O)ccc4C3)C[C@@H]2CC1` [Example 8.04], 192 nM; as for `O=C(OCc1cc(F)cc(C(F)(F)F)c1)N1C[C@@H]2CN(C(=O)c3ccc4[nH]nnc4c3)C[C@@H]2C1` [Example 4.26, (3aS,6aR)-5-(1H-benzotriazole-5-carbonyl)-hexahydro-pyrrolo[3,4-c]pyrrole-2-carboxylic acid 3-fluoro-5-trifluoromethyl-benzyl ester], 51 nM.
Compound `O=C(OCc1cc(Cl)cc(Cl)c1)N1C[C@H]2CCN(C(=O)c3ccc4[nH]nnc4c3)C[C@@H]2C1` (relative stereo) [Example 4.10, trans-3,5-dichlorobenzyl 5-(1H-benzo[d][1,2,3]triazole-5-carbonyl)hexahydro-1H-pyrrolo[3,4-c]pyridine-2(3H)-carboxylate] showed an IC50 of 4 nM.
For the compound `O=C(/C=C/c1ccc(OC(F)(F)F)c(F)c1)N1CC[C@@H]2CN(C(=O)NCc3cnn[nH]3)C[C@@H]2CC1` [Example 9.03], it took 42 nM to reach half-maximal inhibition (IC50).
As for `O=C(OCc1cc(Cl)cc(Cl)c1)N1C[C@H]2CN(Cc3ccc4[nH]c(=O)oc4c3)C[C@H]2C1` [Example 6.03], the figure is 531 nM.
For `O=C(/C=C/c1ccccc1)N1C[C@@H]2CN(C(=O)c3ccc4[nH]nnc4c3)C[C@H]2C1` [Example 15.56] the value was 655 nM; for `O=C(/C=C/c1ccc(OC(F)(F)F)cc1)N1CC[C@@H]2CN(C(=O)NCc3cnn[nH]3)C[C@@H]2CC1` [Example 9, (3aR,8aS)—N-((1H-1,2,3-Triazol-5-yl)methyl)-6-((E)-3-(4-(trifluoromethoxy)phenyl)-acryloyl)octahydropyrrolo[3,4-d]azepine-2(1H)-carboxamide], 709 nM; for `O=C1N[C@@H]2CCN(C(=O)N3C[C@H]4CCN(C(=O)/C=C/c5ccc(OC(F)(F)F)cc5)CC[C@H]4C3)C[C@H]2O1` [Example 8.05], 149 nM.
In turn, `O=C(CCc1ccc(-c2ccccc2)cn1)N1C[C@@H]2CN(C(=O)c3ccc4[nH]nnc4c3)C[C@H]2C1` [Example 17.10, 1-[(3aR,6aR)-5-(1H-benzotriazole-5-carbonyl)-hexahydro-pyrrolo[3,4-c]pyrrol-2-yl]-3-(5-phenyl-pyridin-2-yl)-propan-1-one] had an IC50 of 21 nM.
For the compound `CN(Cc1cnn[nH]1)C(=O)N1C[C@H]2CCN(C(=O)CCc3ccc(OC(F)(F)F)c(F)c3)CC[C@H]2C1` [Example 17.02, (3aR,8aS)-N-((1H-1,2,3-triazol-5-yl)methyl)-6-(3-(3-fluoro-4-(trifluoromethoxy)phenyl)-propanoyl)-N-methyloctahydropyrrolo[3,4-d]azepine-2(1H)-carboxamide], the midpoint of inhibition, the IC50, lay at 101 nM.
The compound `O=C(OCc1cc(Cl)cc(Cl)c1)N1C[C@H]2CN(C(=O)c3ccc4[nH]nnc4c3)C[C@@H]2C1` [Example 4.02, (3aR,6aR)-3,5-dichlorobenzyl 5-(1H-benzo[d][1,2,3]triazole-5-carbonyl)hexahydropyrrolo[3,4-c]pyrrole-2(1H)-carboxylate] had a concentration for half-maximal inhibition (IC50) of 11 nM.
As for `O=C(c1ccc2[nH]nnc2c1)N1C[C@H]2CN(C(=O)N3CCN(c4ccc(Cl)cc4)CC3)C[C@@H]2C1` [Example 20.01, (1H-benzotriazol-5-yl)-{(3aS,6aS)-5-[4-(4-chloro-phenyl)-piperazine-1-carbonyl]-hexahydro-pyrrolo[3,4-c]pyrrol-2-yl}-methanone], the figure is 305 nM.
